Experiment [1] deals with human ACE2 (CHEMBL3736). As to conditions: ChEMBL 26, cited from earlier work.
Experiment [2] deals with T1, ACE2 (Homo sapiens, UniProt Q9BYF1).
T1 construct: purchased Abcam ab273373
The experiment is described as follows: ACE2 inhibitor screening kit (Abcam ab273373), fluorescence enzymatic assay, MCA-based peptide substrate. As to conditions: for inhibition at 20 µM: 20 µM final concentration, n = 1, 25 µL, read-out: Inhibition% (primary screen hits). In kind it is biochemical. The text has this:
Despite the commercial availability of ACE2 Inhibitor Screening Kits the optimal HTS protocols are still not published and their validation is still needed. Among available kits the Abcam, ab273373 was used. This assay is based on the ability of active angiotensin-converting enzyme (ACE2) to cleave a synthetic MCA-based peptide substrate (the structure not disclosed by the manufacturer) and release a free fluorophore. The released fluorophore can be easily quantified using a standard fluorescence microplate reader. During this screening campaign, the next milestones were estimated: (i) optimization of the test compounds solutions used volume (without loss of performance and analytical signal recognition); (ii) optimization of reaction volume and concentrations of the reagents; (iii) determination of IC50 for known inhibitor MLN-4760 (EN300-22203532) and reference inhibitor from the kit (the structure not disclosed by manufacturer) in new validated conditions; (iv) primary screening of 577 selected compounds; (v) hit confirmation; (vi) dose-response curve (DRC) of confirmed hits.
The commercial Abcam (ab273373) Angiotensin II Converting Enzyme (ACE2) Inhibitor Screening Kit and 384-well 3544 Corning low volume, black clear bottom plates were used. The reagent preparation was performed in accord with kit instruction. In order to prepare the required enzyme concentration, we dissolved […] of stock enzyme solution (concentration in stock and MW not disclosed) in 198 µL of ACE2 Dilution Buffer (provided by the Manufacturer), then aliquoted the entire volume into 25 µL and frozen at −70 °C. A substrate solution calculated for one assay well contained 0.5 µL of stock Substrate solution and 9.5 µL of ACE2 Assay Buffer, stored at −70 °C. Reference inhibitor from the kit (five µL in stock, structure, and MW not disclosed) was not aliquoted, 50 µL of ACE Assay Buffer should be added directly before the experiment.
Primary screen assay conditions. Volume: 25 µL; Concentrations: enzyme and substrate solutions prepared according to the instructions and further diluted both to 1:2 in the Assay mixture. Assay buffer: provided by the Manufacturer (composition not disclosed, see SI for reference). Compounds: 20 µM final concentrations in the Assay mixture, n = 1. Reference Inhibitors: (1) Ref. inhibitor provided by the Manufacturer, 300 nM, (n = 4); (2) Compound from Enamine library EN300-22203532, 2.5 nM, (n = 4). Temperature: 25 °C. The enzyme solution was added into corresponding plate wells (columns 1–22), and buffer was added into wells corresponding to negative (Enzyme) control (columns 23, 24). Plates were incubated for 15 min at 25 °C. Then Substrate solution was added to all experimental wells. Plates were centrifuged and measurement started in kinetic mode (Exc/Em 320/420 nm). Results processing: two time points were chosen from kinetic curves for all wells and corresponding RFU values were obtained. ΔRFU/Δt were calculated for each curve and % of inhibition values were calculated from the equation: 100%—ΔRFU of sample/ΔRFU of Enzyme control*100%, according to the recommendation of the Manufacturer.
DRC and IC50 calculations. Concentrations: enzyme and substrate solutions were diluted both to 1:2 in the Assay mixture. Assay buffer: provided by the Manufacturer (composition not disclosed). Temperature: 25 °C. Compounds: 2-fold titrated from 100 µM, n = 4. Reference Inhibitors: (1) Ref. inhibitor Abcam 2-fold titrated from 1.5 µM, (n = 4); (2) Ref. inhibitor EN300-22203532, 2-fold titrated from 20 nM, (n = 4). Compounds were incubated with enzyme for 15 min. Plates were measured in kinetic mode (Exc/Em 320/420 nm). […]

Experiment [3] deals with T1, ACE2. The experiment is described as above. In kind it is biochemical. As to conditions: DRC measured three times each, 3-fold titration, 25 µL, enzyme and substrate 1:2; read-out: IC50 of reference inhibitors in optimized conditions.
The mark [4] stands for this setting: dose-response of confirmed hits, as in Figure 10, read-out: IC50(ACE2).
[5] abbreviates: dose-response, 2-fold titrated, n = 4, 15 min incubation with enzyme, 25 °C, enzyme and substrate 1:2, read-out: IC50 (DRC, Figure 9).

Molecules are shown by their SMILES. Where two headings read alike, the source gives them in different places.

T1 sequence (Q9BYF1 18-805): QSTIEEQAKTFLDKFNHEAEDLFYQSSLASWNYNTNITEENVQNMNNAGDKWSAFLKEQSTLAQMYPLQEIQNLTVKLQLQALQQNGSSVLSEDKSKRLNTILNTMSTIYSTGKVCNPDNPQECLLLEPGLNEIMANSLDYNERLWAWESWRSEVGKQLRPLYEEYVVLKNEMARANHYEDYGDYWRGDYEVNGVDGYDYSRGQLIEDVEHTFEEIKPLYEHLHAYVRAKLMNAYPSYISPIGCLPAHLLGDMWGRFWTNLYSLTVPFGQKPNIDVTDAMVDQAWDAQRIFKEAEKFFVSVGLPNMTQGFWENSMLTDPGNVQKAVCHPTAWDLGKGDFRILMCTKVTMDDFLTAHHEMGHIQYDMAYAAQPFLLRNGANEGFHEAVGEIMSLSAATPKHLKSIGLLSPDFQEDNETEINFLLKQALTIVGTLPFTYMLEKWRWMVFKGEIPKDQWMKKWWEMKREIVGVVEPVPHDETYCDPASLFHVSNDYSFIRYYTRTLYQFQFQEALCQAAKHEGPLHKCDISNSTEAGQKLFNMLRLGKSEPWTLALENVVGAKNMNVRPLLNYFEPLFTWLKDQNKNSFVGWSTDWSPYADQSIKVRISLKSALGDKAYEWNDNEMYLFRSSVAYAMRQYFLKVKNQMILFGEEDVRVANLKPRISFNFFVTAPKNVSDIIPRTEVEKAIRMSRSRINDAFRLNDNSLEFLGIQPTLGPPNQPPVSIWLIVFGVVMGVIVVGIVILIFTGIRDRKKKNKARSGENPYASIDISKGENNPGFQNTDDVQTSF

With `CC[C@@H](C)[C@H](S)C(=O)N[C@@H](Cc1ccc(OCc2ccc(F)c(F)c2)cc1)C(=O)O` [CHEMBL251808, CC[C@@H](C)[C@H](S)C(=O)N[C@@H](Cc1ccc(OCc2ccc(F)c(F)c2)cc1)C(O)=O], in experiment [1] (known selective ACE2 inhibitors), the Ki is 0.00085 µM.

Turning to `CC(NC(=O)CCCCC(=O)O)c1ccc(-c2ccc(N(C)C)cc2)cc1` (centres unmarked) [Compound 1], the inhibition at 20 µM in experiment [2] (enzyme and substrate 1:2) was determined as 38.8%. In addition, the IC50 in experiment [2] (setting [4]) was found to be 45.8 µM.

Take `Cc1ccc2nc(-c3ccc(NC(=O)CCC(=O)O)cc3)sc2c1` [Compound 2, Cc1ccc2nc(sc2c1)-c1ccc(NC(=O)CCC([O-])=O)cc1]: in experiment [2] (enzyme and substrate 1:2), the inhibition at 20 µM was 74.1%. Further, the IC50 in experiment [2] (setting [5]) is 110 µM.

Regarding `O=C(O)CC(NC(=O)c1ccc(-c2ccc(F)cc2)o1)c1ccc(F)cc1` (centres unmarked) [Compound 3], the inhibition at 20 µM in experiment [2] (enzyme and substrate 1:2) was found to be 28.9%. In addition, the IC50 in experiment [2] (setting [4]) was determined as 46.4 µM.

For the compound `Cc1ccc(CCC2CCN(C(=O)CN3CCCC3C(=O)O)CC2)cc1` (centres unmarked) [Compound 4], the inhibition at 20 µM in experiment [2] (enzyme and substrate 1:2) came to 54%. The half-maximal inhibitory concentration (IC50) in experiment [2] (setting [4]) worked out at 16.8 µM.

As for `O=C(O)CSc1ccc(C(=O)/C=C/c2cnn(-c3ccccc3)c2)cc1F` [Compound 5, OC(=O)CSc1ccc(cc1F)C(=O)C=Cc1cnn(c1)-c1ccccc1], the inhibition at 20 µM in experiment [2] (enzyme and substrate 1:2) came out at 29.8%. For the same compound, in experiment [2] (setting [4]), the IC50 amounted to 53.6 µM.

In the case of `CCC(C(=O)O)[S+]([O-])Cc1csc(-c2ccc3c(c2)OCO3)n1` (centres unmarked) [Compound 6], the inhibition at 20 µM in experiment [2] (enzyme and substrate 1:2) amounted to 50.1%. In experiment [2] (setting [5]), the IC50 was found to be 67.3 µM.

Regarding `O=C(NC1CN(c2ccccc2)C1=O)c1ncccc1O` (centres unmarked) [Compound 7], the inhibition at 20 µM in experiment [2] (enzyme and substrate 1:2) was 52.1%. Moreover, the IC50 in experiment [2] (setting [4]) was found to be 269 µM.

Regarding `CC(C)C[C@H](N[C@@H](Cc1cncn1Cc1cc(Cl)cc(Cl)c1)C(=O)O)C(=O)O` [MLN-4760, reference compound], the results for the IC50 in experiment [2] (setting [5]), in experiment [1] (known selective ACE2 inhibitor) and in experiment [3] were 0.2 µM, 0.00044 µM and 0.0009 to 0.0025 µM, respectively. Besides, the “%inh_Ref EN300-22203532, Plate 1” value in experiment [2] (primary screen QC, 2.5 nM, n = 4, plate 1) amounted to 69.9%. In addition, in experiment [2] (primary screen QC, 2.5 nM, n = 4, plate 2), the “%inh_Ref EN300-22203532, Plate 2” value is 72.2%.

Values taken from article PMC9458095, “In Vitro Evaluation of In Silico Screening Approaches in Search for Selective ACE2 Binding Chemical Probes” (Molecules, 2022).
